ChEMBL document CHEMBL4507283, “Data for DCP probe BI-1935” (2021)

How the values were obtained:
[1] = molecular target: T1, Sodium-dependent dopamine transporter (Homo sapiens, UniProt Q01959); assay: GPCRScan assay: inhibition of DAT; set-up: radioligand conc. used [nm] 3.6 – 16.0, parental cells stable HEK
[2] = molecular target: T2, Bifunctional epoxide hydrolase 2 (Homo sapiens, UniProt P34913); assay: Human soluble epoxide hydrolase inhibition
T2 sequence (P34913 whole entry): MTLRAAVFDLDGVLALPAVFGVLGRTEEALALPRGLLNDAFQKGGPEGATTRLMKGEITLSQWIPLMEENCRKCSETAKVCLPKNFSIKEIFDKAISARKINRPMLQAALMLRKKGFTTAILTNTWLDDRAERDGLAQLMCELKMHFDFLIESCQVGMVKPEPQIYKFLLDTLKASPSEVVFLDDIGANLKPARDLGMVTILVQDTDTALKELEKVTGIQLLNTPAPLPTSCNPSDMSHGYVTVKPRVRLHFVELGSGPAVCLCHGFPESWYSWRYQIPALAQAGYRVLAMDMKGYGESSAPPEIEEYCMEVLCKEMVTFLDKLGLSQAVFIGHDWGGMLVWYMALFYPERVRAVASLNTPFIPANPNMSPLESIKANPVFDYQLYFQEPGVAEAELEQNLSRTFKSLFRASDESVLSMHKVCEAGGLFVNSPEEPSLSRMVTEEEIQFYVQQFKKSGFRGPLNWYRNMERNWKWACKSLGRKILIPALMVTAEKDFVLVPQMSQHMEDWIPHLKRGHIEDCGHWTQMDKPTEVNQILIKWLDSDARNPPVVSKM

[3] = molecular target: 5-hydroxytryptamine receptor 1A (Homo sapiens) (UniProt P08908); details: Compound concentration 10.0 uM
[4] = molecular target: 5-hydroxytryptamine receptor 1B (Homo sapiens) (UniProt P28222); details: Compound concentration 10.0 uM
Chain of 5-hydroxytryptamine receptor 1B (Homo sapiens) (P28222 whole entry): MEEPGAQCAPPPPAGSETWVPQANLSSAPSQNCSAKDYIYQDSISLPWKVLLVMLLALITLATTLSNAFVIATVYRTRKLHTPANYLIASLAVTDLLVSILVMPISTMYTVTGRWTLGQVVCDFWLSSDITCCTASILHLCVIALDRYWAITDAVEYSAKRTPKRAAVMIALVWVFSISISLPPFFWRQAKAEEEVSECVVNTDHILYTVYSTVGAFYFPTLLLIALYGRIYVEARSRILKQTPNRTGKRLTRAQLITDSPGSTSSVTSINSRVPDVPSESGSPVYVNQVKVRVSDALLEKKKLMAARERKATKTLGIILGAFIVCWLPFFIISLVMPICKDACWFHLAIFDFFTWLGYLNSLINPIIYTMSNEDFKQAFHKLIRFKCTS

[5] = molecular target: 5-hydroxytryptamine receptor 1D (Homo sapiens) (UniProt P28221); details: Compound concentration 10.0 uM
Chain of 5-hydroxytryptamine receptor 1D (Homo sapiens) (P28221 whole entry): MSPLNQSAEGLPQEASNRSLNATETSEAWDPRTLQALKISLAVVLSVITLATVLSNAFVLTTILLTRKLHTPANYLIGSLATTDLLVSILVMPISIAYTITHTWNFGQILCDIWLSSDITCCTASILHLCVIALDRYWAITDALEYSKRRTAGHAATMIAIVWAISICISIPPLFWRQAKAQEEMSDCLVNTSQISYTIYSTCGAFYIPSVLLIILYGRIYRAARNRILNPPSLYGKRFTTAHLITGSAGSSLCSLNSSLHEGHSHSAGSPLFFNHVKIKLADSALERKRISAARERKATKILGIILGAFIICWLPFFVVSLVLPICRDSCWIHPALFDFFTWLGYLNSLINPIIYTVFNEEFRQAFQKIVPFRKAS

[6] = molecular target: 5-hydroxytryptamine receptor 1E (Homo sapiens) (UniProt P28566); details: Compound concentration 10.0 uM
[7] = molecular target: 5-hydroxytryptamine receptor 2A (Homo sapiens) (UniProt P28223); details: Compound concentration 10.0 uM
Chain of 5-hydroxytryptamine receptor 2A (Homo sapiens) (P28223 whole entry): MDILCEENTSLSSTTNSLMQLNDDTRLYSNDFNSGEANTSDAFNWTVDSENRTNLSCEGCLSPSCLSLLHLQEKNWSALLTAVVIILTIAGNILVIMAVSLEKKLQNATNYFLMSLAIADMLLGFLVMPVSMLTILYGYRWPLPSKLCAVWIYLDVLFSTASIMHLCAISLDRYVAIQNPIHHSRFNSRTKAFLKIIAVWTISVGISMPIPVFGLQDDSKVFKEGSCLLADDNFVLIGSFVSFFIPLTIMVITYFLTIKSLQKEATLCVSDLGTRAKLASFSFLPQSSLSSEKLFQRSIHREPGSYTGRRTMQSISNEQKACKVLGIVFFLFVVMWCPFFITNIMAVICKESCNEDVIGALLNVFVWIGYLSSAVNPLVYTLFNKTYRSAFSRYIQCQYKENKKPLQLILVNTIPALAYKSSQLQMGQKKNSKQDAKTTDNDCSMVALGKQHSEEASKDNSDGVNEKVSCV

[8] = molecular target: 5-hydroxytryptamine receptor 2B (Homo sapiens) (UniProt P41595); details: Compound concentration 10.0 uM
[9] = molecular target: T3, 5-hydroxytryptamine receptor 3A (Homo sapiens) (UniProt P46098); details: Compound concentration 10.0 uM
T3 sequence (whole entry): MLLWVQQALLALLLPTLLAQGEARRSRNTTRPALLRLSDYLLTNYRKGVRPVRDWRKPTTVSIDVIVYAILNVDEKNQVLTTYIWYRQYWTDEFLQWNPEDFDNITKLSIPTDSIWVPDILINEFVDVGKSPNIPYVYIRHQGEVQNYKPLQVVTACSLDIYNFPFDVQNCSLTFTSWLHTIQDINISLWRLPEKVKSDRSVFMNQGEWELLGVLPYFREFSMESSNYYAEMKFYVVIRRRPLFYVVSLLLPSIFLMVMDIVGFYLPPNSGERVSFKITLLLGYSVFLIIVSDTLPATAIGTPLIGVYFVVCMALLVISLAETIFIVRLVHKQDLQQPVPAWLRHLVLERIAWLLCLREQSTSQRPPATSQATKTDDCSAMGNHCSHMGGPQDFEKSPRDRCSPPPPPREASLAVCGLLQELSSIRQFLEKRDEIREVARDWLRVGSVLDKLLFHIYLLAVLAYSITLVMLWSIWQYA

[10] = molecular target: 5-hydroxytryptamine receptor 5A (Homo sapiens) (UniProt P47898); details: Compound concentration 10.0 uM
Chain of 5-hydroxytryptamine receptor 5A (Homo sapiens) (P47898 whole entry): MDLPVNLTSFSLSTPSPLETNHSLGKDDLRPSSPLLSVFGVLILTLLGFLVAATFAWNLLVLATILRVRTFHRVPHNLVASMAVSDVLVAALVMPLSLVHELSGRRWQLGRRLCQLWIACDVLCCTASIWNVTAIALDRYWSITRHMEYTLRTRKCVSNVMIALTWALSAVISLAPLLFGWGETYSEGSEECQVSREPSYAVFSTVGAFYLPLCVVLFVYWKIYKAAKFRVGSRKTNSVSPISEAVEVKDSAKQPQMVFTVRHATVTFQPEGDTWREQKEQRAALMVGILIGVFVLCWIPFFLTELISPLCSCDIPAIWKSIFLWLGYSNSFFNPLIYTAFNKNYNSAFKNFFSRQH

[11] = molecular target: 5-hydroxytryptamine receptor 7 (Homo sapiens) (UniProt P34969); details: Compound concentration 10.0 uM
[12] = molecular target: D(1A) dopamine receptor (Homo sapiens) (UniProt P21728); details: Compound concentration 10.0 uM
Chain of D(1A) dopamine receptor (Homo sapiens) (P21728 whole entry): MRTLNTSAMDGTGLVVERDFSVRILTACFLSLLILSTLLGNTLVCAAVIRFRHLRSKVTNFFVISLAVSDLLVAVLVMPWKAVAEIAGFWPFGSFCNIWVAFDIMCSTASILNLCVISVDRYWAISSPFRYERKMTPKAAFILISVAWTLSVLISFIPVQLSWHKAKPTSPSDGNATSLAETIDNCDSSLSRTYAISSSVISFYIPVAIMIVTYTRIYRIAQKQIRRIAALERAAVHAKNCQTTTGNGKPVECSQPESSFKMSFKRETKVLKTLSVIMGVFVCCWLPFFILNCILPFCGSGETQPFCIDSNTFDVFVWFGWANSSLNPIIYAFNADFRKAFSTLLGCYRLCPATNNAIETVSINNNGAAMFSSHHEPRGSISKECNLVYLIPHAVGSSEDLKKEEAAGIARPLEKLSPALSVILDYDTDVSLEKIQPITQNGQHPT

[13] = molecular target: D(2) dopamine receptor (Homo sapiens) (UniProt P14416); details: Compound concentration 10.0 uM
[14] = molecular target: D(3) dopamine receptor (Homo sapiens) (UniProt P35462); details: Compound concentration 10.0 uM
[15] = molecular target: Sodium-dependent serotonin transporter (Homo sapiens) (UniProt P31645); details: Compound concentration 10.0 uM
Chain of Sodium-dependent serotonin transporter (Homo sapiens) (P31645 whole entry, looked up): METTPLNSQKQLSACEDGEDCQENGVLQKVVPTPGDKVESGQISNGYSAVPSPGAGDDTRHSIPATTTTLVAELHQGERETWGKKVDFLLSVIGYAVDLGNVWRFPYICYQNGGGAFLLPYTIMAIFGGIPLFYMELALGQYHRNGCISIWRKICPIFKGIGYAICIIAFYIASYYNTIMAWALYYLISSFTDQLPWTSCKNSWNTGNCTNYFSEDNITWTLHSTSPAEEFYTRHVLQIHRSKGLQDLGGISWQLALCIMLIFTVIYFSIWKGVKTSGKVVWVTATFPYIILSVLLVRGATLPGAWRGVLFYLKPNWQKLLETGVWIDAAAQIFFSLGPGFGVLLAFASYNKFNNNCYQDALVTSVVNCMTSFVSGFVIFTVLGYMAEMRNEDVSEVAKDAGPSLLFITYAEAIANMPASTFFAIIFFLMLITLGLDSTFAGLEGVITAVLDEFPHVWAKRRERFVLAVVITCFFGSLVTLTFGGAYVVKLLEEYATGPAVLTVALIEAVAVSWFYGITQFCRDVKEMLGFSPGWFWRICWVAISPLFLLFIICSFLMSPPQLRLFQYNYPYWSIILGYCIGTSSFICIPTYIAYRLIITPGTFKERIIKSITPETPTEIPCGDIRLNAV

[16] = molecular target: Sodium-dependent noradrenaline transporter (Homo sapiens) (UniProt P23975); details: Compound concentration 10.0 uM
[17] = molecular target: T1, Sodium-dependent dopamine transporter; details: Compound concentration 10.0 uM
[18] = molecular target: Mu-type opioid receptor (Homo sapiens) (UniProt P35372); details: Compound concentration 10.0 uM
[19] = molecular target: Delta-type opioid receptor (Homo sapiens) (UniProt P41143); details: Compound concentration 10.0 uM
Chain of Delta-type opioid receptor (Homo sapiens) (P41143 whole entry): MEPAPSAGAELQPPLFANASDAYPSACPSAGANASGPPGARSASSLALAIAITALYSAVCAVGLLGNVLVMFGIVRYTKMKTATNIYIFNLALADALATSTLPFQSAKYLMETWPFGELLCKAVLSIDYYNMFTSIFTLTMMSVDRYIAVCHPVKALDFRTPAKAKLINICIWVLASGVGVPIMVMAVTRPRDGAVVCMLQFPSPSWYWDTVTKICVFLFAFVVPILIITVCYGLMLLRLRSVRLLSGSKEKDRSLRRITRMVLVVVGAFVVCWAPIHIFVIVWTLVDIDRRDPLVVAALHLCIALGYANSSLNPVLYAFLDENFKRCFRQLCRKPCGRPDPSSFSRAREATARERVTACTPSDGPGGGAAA

[20] = molecular target: Kappa-type opioid receptor (Homo sapiens) (UniProt P41145); details: Compound concentration 10.0 uM
Chain of Kappa-type opioid receptor (Homo sapiens) (P41145 whole entry): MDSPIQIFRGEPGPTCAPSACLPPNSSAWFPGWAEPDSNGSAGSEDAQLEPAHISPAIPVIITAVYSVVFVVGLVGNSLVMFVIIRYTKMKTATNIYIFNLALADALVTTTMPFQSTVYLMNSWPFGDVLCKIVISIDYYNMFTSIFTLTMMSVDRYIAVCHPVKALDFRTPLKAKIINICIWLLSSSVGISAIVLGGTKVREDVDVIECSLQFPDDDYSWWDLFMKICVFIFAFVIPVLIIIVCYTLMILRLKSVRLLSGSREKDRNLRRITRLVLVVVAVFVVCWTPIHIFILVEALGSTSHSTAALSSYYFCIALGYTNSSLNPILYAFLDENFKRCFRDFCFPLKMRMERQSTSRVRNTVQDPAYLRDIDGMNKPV

[21] = molecular target: GABA-A receptor; anion channel (Rattus norvegicus) (UniProt O09028+P15431+P18506+P18508+P19969+P20236+P23574+P23576+P28471+P28473+P30191+P62813+P63079+P63138+Q91ZM7+Q9ES14); details: Compound concentration 10.0 uM
[22] = molecular target: Histamine H1 receptor (Homo sapiens) (UniProt P35367); details: Compound concentration 10.0 uM
[23] = molecular target: Histamine H2 receptor (Homo sapiens) (UniProt P25021); details: Compound concentration 10.0 uM
[24] = molecular target: Histamine H3 receptor (Homo sapiens) (UniProt Q9Y5N1); details: Compound concentration 10.0 uM
Chain of Histamine H3 receptor (Homo sapiens) (Q9Y5N1 whole entry): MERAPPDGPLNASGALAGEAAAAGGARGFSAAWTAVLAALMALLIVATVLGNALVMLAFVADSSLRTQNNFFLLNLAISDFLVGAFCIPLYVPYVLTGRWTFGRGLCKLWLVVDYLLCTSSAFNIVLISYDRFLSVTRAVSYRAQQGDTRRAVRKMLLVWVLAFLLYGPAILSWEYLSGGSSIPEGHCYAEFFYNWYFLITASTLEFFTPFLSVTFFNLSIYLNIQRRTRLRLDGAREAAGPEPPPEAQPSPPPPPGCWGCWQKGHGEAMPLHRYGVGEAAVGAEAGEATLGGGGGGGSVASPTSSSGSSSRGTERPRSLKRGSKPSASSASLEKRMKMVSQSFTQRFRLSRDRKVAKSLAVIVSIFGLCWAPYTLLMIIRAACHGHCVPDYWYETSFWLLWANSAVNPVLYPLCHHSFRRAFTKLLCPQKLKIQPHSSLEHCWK

[25] = molecular target: Histamine H4 receptor (Homo sapiens) (UniProt Q9H3N8); details: Compound concentration 10.0 uM
[26] = molecular target: Alpha-1A adrenergic receptor (Homo sapiens) (UniProt P35348); details: Compound concentration 10.0 uM
[27] = molecular target: Alpha-1B adrenergic receptor (Homo sapiens) (UniProt P35368); details: Compound concentration 10.0 uM
[28] = molecular target: Alpha-2A adrenergic receptor (Homo sapiens) (UniProt P08913); details: Compound concentration 10.0 uM
[29] = molecular target: Alpha-2B adrenergic receptor (Homo sapiens) (UniProt P18089); details: Compound concentration 10.0 uM
[30] = molecular target: Alpha-2C adrenergic receptor (Homo sapiens) (UniProt P18825); details: Compound concentration 10.0 uM
[31] = molecular target: Beta-1 adrenergic receptor (Homo sapiens) (UniProt P08588); details: Compound concentration 10.0 uM
[32] = molecular target: Beta-2 adrenergic receptor (Homo sapiens) (UniProt P07550); details: Compound concentration 10.0 uM
[33] = molecular target: Muscarinic acetylcholine receptor M1 (Homo sapiens) (UniProt P11229); details: Compound concentration 10.0 uM
[34] = molecular target: Muscarinic acetylcholine receptor M2 (Homo sapiens) (UniProt P08172); details: Compound concentration 10.0 uM
[35] = molecular target: Muscarinic acetylcholine receptor M3 (Homo sapiens) (UniProt P20309); details: Compound concentration 10.0 uM
[36] = molecular target: Muscarinic acetylcholine receptor M4 (Homo sapiens) (UniProt P08173); details: Compound concentration 10.0 uM
Chain of Muscarinic acetylcholine receptor M4 (Homo sapiens) (P08173 whole entry): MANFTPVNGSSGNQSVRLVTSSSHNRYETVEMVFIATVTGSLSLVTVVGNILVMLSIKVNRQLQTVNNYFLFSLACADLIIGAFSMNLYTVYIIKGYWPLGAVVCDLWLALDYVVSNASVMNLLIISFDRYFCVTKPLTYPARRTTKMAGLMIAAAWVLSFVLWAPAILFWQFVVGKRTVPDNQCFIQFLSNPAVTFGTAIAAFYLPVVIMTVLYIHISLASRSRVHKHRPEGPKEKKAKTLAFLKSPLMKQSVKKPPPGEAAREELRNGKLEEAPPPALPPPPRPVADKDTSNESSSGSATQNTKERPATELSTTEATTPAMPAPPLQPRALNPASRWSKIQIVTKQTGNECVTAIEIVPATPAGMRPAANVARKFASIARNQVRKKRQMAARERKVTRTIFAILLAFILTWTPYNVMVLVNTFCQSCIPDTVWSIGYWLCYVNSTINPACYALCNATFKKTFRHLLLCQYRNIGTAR

[37] = molecular target: Muscarinic acetylcholine receptor M5 (Homo sapiens) (UniProt P08912); details: Compound concentration 10.0 uM
[38] = molecular target: Beta-3 adrenergic receptor (Homo sapiens) (UniProt P13945); details: Compound concentration 10.0 uM
[39] = species on record: Rattus norvegicus; details: Compound concentration 10.0 uM
[40] = molecular target: Alpha-1D adrenergic receptor (Homo sapiens) (UniProt P25100); details: Compound concentration 10.0 uM
[41] = molecular target: Sigma intracellular receptor 2 (Homo sapiens) (UniProt Q5BJF2); details: Compound concentration 10.0 uM

T1 sequence (Q01959 whole entry): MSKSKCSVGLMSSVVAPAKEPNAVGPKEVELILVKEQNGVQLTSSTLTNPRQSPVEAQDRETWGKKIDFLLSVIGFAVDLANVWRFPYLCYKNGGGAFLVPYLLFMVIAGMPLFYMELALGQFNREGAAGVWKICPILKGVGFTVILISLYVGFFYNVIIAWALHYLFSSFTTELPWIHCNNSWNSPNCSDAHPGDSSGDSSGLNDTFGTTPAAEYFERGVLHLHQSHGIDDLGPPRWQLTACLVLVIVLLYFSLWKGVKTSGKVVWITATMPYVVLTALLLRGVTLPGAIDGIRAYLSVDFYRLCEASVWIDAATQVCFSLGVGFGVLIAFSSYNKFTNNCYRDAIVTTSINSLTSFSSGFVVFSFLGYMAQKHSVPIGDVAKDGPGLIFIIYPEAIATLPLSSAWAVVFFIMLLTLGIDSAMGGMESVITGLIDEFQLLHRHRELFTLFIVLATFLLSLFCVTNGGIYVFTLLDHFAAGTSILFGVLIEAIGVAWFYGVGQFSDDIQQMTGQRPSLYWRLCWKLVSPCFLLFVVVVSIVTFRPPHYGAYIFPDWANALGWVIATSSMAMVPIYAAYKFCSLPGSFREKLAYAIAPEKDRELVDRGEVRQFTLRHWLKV

- pKi [1]: < 5
- Ki ([1]; read-out: Ki): > 10 µM
- IC50 [2]: > 3 µM (not active)
- inhibition [3]: -3.06%
- inhibition [4]: -0.85%
- inhibition [5]: -9.83%
- inhibition [6]: -4.45%
- inhibition [7]: -1.62%
- inhibition [8]: 9.91%
- inhibition [9]: -8.89%
- inhibition [10]: -2.92%
- inhibition [11]: 6.21%
- inhibition [12]: 4.32%
- inhibition [13]: -9.24%
- inhibition [14]: 8.38%
- inhibition [15]: 9.16%
- inhibition [16]: -9.35%
- inhibition [17]: 68.2%
- inhibition [18]: 7.17%
- inhibition [19]: 3.77%
- inhibition [20]: 13.8%
- inhibition [21]: 16.1%
- inhibition [22]: 3.07%
- inhibition [23]: -5.62%
- inhibition [24]: -1.54%
- inhibition [25]: -9.32%
- inhibition [26]: 1.9%
- inhibition [27]: -3.49%
- inhibition [28]: 8.3%
- inhibition [29]: 1.26%
- inhibition [30]: 6.33%
- inhibition [31]: 0.23%
- inhibition [32]: 5.14%
- inhibition [33]: 25.5%
- inhibition [34]: 9.94%
- inhibition [35]: 3.71%
- inhibition [36]: 0.8%
- inhibition [37]: 0.37%
- inhibition [38]: -0.78%
- inhibition [39]: 15%
- inhibition [40]: 18.3%
- inhibition [41]: 30.1%
SMILES: O=C(Nc1ccc(-n2nc(-c3cccnc3)cc2C(F)(F)F)cn1)c1ccc(-c2ccccc2)c(F)c1 [BI 2049]
